Source: patent publication US20120115175A1, “METHODS FOR DIAGNOSING ELEVATED RIGHT OR LEFT VENTRICULAR FILLING PRESSURE” (Tufts Medical Center, Inc., priority 2010, published 2012)
Numbered stars: 1 amine (or outer) side, 2 acyl side, 3 side chain; on linkers, the order of the positions; unused ones are H or OH. Bridge positions count the residues as written; N and C are the ends. Square brackets hold non-standard residues; d marks the D form. Peptide text beside a SMILES is read from it. I, II: the chains in the order shown. Actinocin(9to1) = Cc1c2oc3c(C)ccc(C(=O)[*:1])c3nc-2c(C(=O)[*:2])c(N)c1=O; NMeV = CN[C@H](C(=O)O)C(C)C; Sar = CNCC(=O)O

System: human cardiac fibroblasts (hCF)
Test: Cyclic mechanical stretch of human cardiac fibroblasts: endoglin mRNA (qRT-PCR), endoglin protein (Western blot), sEng release (ELISA)
Assay type: cell-based
Conditions: for stretch-induced endoglin mRNA expression: pre-treated 1 μM for 2 hours prior to mechanical stretch (10% cyclic stretch, 1 Hz), qRT-PCR
Experimental: As a first step towards understanding increased endoglin expression in heart failure, we exposed cardiac fibroblasts to cyclic mechanical stretch in vitro using a FlexCell apparatus. Briefly, human cardiac fibroblasts (hCF) were cultured onto silastic membranes and exposed to 10% cyclic stretch (1 Hz) for various time points in fibroblast basal media (FBM). We identified a rapid increase in sEng release by enzyme-linked immunosorbent assay (ELISA), followed by increased endoglin mRNA expression by quantitative real-time PCR (qRT-PCR) (FIG. 7).
To begin exploring the mechanism underlying stretch-induced endoglin expression, we pre-treated cultured hCF in FBM with actinomycin-D (Act-D; 1 μM), SB-431542 (an ALK-5 inhibitor; 1 μM), or anti-TGFβ1 antibodies (10 ng/mL, R&D Systems) for 2 hours prior to mechanical stretch. […] Furthermore, ERK-inhibition with 10 μM PD98059 attenuated stretch-induced mEng protein expression and sEng release by Western blot and ELISA (FIG. 9).

[1] = hCF in FBM, pre-treated 1 μM for 2 hours prior to mechanical stretch, ELISA

Compound | endoglin protein expression (hCF in FBM, pre-treated 1 μM for 2 hours prior to mechanical stretch) | stretch-induced endoglin mRNA expression (hCF in FBM) | sEng release [1] | stretch-induced sEng release (hCF, 10 μM, ELISA) | stretch-induced mEng protein expression (hCF, 10 μM, Western blot)
Cc1c2oc3c(C)ccc(C(=O)N[C@@H]4C(=O)N[C@H](C(C)C)C(=O)N5CCC[C@H]5C(=O)N(C)CC(=O)N(C)[C@@H](C(C)C)C(=O)O[C@@H]4C)c3nc-2c(C(=O)N[C@@H]2C(=O)N[C@H](C(C)C)C(=O)N3CCC[C@H]3C(=O)N(C)CC(=O)N(C)[C@@H](C(C)C)C(=O)O[C@@H]2C)c(N)c1=O [Act-D, actinomycin-D] (I: T[dV]P[Sar][NMeV] / II: T[dV]P[Sar][NMeV]; ester I:1-I:C, II:1-II:C; linker I:N-II:N via Actinocin(9to1)) | minimal effect | abolished | minimal effect | – | –
COc1cccc(-c2cc(=O)c3ccccc3o2)c1N [PD98059] | – | – | – | attenuated | attenuated
NC(=O)c1ccc(-c2nc(-c3ccc4c(c3)OCO4)c(-c3ccccn3)[nH]2)cc1 [SB-431542] | – | partially attenuated | failed to inhibit | – | –
